Measured values as given in patent US10071974B2, “Morpholine and 1,4-oxazepane amides as somatostatin receptor subtype 4 (SSTR4) agonists” (Boehringer Ingelheim International GmbH, priority 2014, dated 2018).

Biological target: human Somatostatin 4 Receptor (SSTR4) (Homo sapiens (Human), UniProt P31391)
Experiment: cAMP assay with human somatostatin 4 receptor (hSSTR4 expressing H4 cells)
Type: cell-based
Conditions: read-out: SSTR4 agonism EC50

Chain of human Somatostatin 4 Receptor (SSTR4) (P31391 whole entry): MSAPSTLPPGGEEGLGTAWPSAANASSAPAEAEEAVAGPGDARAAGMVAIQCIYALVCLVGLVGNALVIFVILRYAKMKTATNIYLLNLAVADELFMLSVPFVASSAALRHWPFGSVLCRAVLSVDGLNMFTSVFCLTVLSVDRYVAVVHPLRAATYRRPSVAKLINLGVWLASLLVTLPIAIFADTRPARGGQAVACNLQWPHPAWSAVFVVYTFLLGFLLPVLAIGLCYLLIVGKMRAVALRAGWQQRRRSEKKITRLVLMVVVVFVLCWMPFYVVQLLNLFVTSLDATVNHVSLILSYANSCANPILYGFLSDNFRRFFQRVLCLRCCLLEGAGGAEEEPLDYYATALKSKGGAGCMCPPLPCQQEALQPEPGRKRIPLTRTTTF

Compound | EC50 [nM]
CC(C)(COc1nccc2ccccc12)NC(=O)C1CNCCOC1 (racemic) [Example 16] | 393
Cc1cccc2c(C(C)(C)NC(=O)C3CNCCOC3)noc12 (single isomer, unassigned) [Example 56] | 737
CC(C)(NC(=O)C1CNCCCO1)c1noc2c(F)cccc12 (racemic) [Example 65] | 998
Cc1cccn2c(C(C)(C)NC(=O)C3CNCCCO3)nc(C)c12 (single isomer, unassigned) [Example 148] | 93
Cc1nc2ccccn2c1C(C)(C)NC(=O)[C@@H]1CNCCO1 [Example 106] | 230
CC(C)(NC(=O)C1CNCCOC1)c1n[nH]c2c(F)cccc12 (single isomer, unassigned) [Example 90] | 670
Cc1cccc2c(C(C)(C)NC(=O)C3CNCCOC3)n[nH]c12 (single isomer, unassigned) [Example 59] | 1070
Cc1ccccc1OCC(C)(C)NC(=O)[C@@H]1CNCCO1 [Example 15] | 244
CC(C)(NC(=O)[C@@H]1CNCCO1)c1nc2ccc(Cl)cc2[nH]1 [Example 14] | 796
Cn1nc(C(C)(C)NC(=O)C2CNCCCO2)c2ccccc21 (single isomer, unassigned) [Example 25] | 1000
Cn1nc(C(C)(C)NC(=O)C2CNCCOC2)c2ccccc21 (single isomer, unassigned) [Example 22] | 192
Cc1cccn2c(C(C)(C)NC(=O)C3CCNCCO3)ncc12 (single isomer, unassigned) [Example 142] | 90.5
Cc1cccn2c(C(C)(C)NC(=O)C3CNCCCO3)ncc12 (racemic) [Example 144] | 71.8
CC(C)(NC(=O)C1CCNCCO1)c1noc2c(F)cccc12 (single isomer, unassigned) [Example 69] | 434
Cc1cccn2c(C(C)(C)NC(=O)C3CNCCCO3)nc(C)c12 (racemic) [Example 147] | 185
Cc1cccc2c(C(C)(C)NC(=O)C3CNCCOC3)cnn12 (single isomer, unassigned) [Example 35] | 2860
Cc1cccn2c(C(C)(C)NC(=O)C3CNCCOC3)nc(C3CC3)c12 (racemic) [Example 138] | 59.7
Cc1cccn2c(C(C)(NC(=O)[C@@H]3CNCCO3)C3CC3)ncc12 (single isomer, unassigned) [Example 110] | 1000
Cc1cccn2c(C3(NC(=O)[C@@H]4CNCCO4)CCOC3)ncc12 (single isomer, unassigned) [Example 115] | 294
Cc1cccn2c(C(C)(C)NC(=O)C3CNCCOC3)ncc12 (single isomer, unassigned) [Example 118] | 86.8
Cc1cccn2c(C(C)(C)NC(=O)C3CNCCCO3)nc(C)c12 (single isomer, unassigned) [Example 149] | 1000
CC(C)(NC(=O)C1CCNCCO1)c1noc2c(F)cccc12 (single isomer, unassigned) [Example 70] | 544
Cn1nc(C(C)(C)NC(=O)C2CCNCCO2)c2ccccc21 (single isomer, unassigned) [Example 28] | 48.4
CC(C)(NC(=O)[C@@H]1CNCCO1)c1nc(C2CC2)c2c(F)cccn12 [Example 103] | 60.7
CC(C)(NC(=O)[C@@H]1CNCCO1)c1noc2c(F)cccc12 [Example 61] | 147
Cn1nc(C(C)(C)NC(=O)[C@@H]2CNCCO2)c2cccc(C(F)(F)F)c21 [Example 31] | 52.7
Cc1nc(C(C)(C)NC(=O)C2CNCCOC2)n2cccc(F)c12 (single isomer, unassigned) [Example 122] | 1000

Compound | EC50 [nM]
Cc1cccn2c(C(C)(NC(=O)[C@@H]3CNCCO3)C3CC3)ncc12 (single isomer, unassigned) [Example 111] | 290
CC(C)(NC(=O)[C@@H]1CNCCO1)C1CCCCC1 [Example 7] | 2420
Cc1cccn2c(C3(NC(=O)C4CNCCOC4)CCC3)ncc12 (single isomer, unassigned) [Example 132] | 10000
Cc1cccn2c(C(C)(CC(C)C)NC(=O)[C@@H]3CNCCO3)ncc12 (single isomer, unassigned) [Example 112] | 5500
Cc1cccn2c(C(C)(C)NC(=O)C3CNCCOC3)nc(C)c12 (single isomer, unassigned) [Example 130] | 466
Cc1cc(F)cn2c(C(C)(C)NC(=O)[C@@H]3CNCCO3)ncc12 [Example 100] | 103
C[C@H](NC(=O)[C@@H]1CNCCO1)c1cccc2ccccc12 [Example 10] | 51.2
Cc1ncc(C(C)(C)NC(=O)[C@H]2CNCCO2)c2ccccc12 [Example 39] | 180
Cc1cccn2c(C(C)(C)NC(=O)C3CCNCCO3)ncc12 (single isomer, unassigned) [Example 143] | 77.6
CC(C)(COc1cnccc1C(F)(F)F)NC(=O)C1CNCCOC1 (stereo not drawn) [Example 4] | 272
Cc1cccn2c(C(C)(C)NC(=O)[C@@H]3CNCCO3)nnc12 [Example 105] | 596
Cc1cccn2c(C(C)(C)NC(=O)C3CNCCCO3)ncc12 (single isomer, unassigned) [Example 146] | 1000
CC(C)(NC(=O)C1CNCCOC1)c1noc2c(F)cccc12 (single isomer, unassigned) [Example 64] | 1860
Cn1nc(C(C)(C)NC(=O)C2CNCCOC2)c2cccc(F)c21 (single isomer, unassigned) [Example 78] | 430
Cc1cccn2c(C(C)(CC(C)C)NC(=O)[C@@H]3CNCCO3)ncc12 (single isomer, unassigned) [Example 113] | 380
CC(C)(COc1nccc2ccccc12)NC(=O)C1CNCCOC1 (single isomer, unassigned) [Example 17] | 30000
Cc1cccn2c(C(C)(C)NC(=O)[C@@H]3CNCCO3)cnc12 [Example 108] | 58.1
CC(C)(NC(=O)C1CNCCOC1)c1nc2ccc(Cl)cc2[nH]1 (stereo not drawn) [Example 13] | 356
CC(C)(NC(=O)C1CNCCOC1)c1ncc2c(Cl)cccn12 (single isomer, unassigned) [Example 119] | 73.9
Cn1nc(C(C)(C)NC(=O)C2CNCCOC2)c2cccc(Cl)c21 (single isomer, unassigned) [Example 81] | 152
CC(C)(NC(=O)C1CCNCCO1)c1noc2c(F)cccc12 (racemic) [Example 68] | 628
Cc1cc2ccccc2c(C(C)(C)NC(=O)C2CCNCCO2)n1 (single isomer, unassigned) [Example 52] | 48.9
CC(C)(NC(=O)C1CNCCCO1)c1noc2c(F)cccc12 (single isomer, unassigned) [Example 66] | 625
COc1cccn2c(C(C)(C)NC(=O)C3CNCCOC3)ncc12 (single isomer, unassigned) [Example 124] | 1000
Cc1cc2ccccc2c(C(C)(C)NC(=O)C2CNCCCO2)n1 (single isomer, unassigned) [Example 49] | 988
Cc1cc2ccccc2c(C(C)(C)NC(=O)C2CCNCCO2)n1 (racemic) [Example 50] | 105
Cc1cccn2c(C(C)(C)NC(=O)C3CNCCOC3)ccc12 (single isomer, unassigned) [Example 137] | 1430

The next molecules have a lower EC50 than those just listed; values first:

EC50 [nM] | Compound
35.1 | CC(C)(NC(=O)[C@@H]1CNCCO1)c1noc2c(Cl)cccc12 [Example 71]
8.2 | Cc1cccc2c(C(C)(C)NC(=O)C3CNCCOC3)noc12 (racemic) [Example 54]
25.9 | Cc1cc2ccccc2c(C(C)(C)NC(=O)C2CNCCCO2)n1 (racemic) [Example 47]
4.5 | Cc1cccc2c(C(C)(C)NC(=O)C3CNCCOC3)nn(C)c12 (racemic) [Example 84]
0.8 | Cc1ncc(C(C)(C)NC(=O)C2CNCCOC2)c2ccccc12 (racemic) [Example 40]
16.4 | COc1cccn2c(C(C)(C)NC(=O)C3CNCCOC3)ncc12 (single isomer, unassigned) [Example 125]
13.4 | CC(C)(NC(=O)[C@@H]1CNCCO1)c1n[nH]c2c(F)cccc12 [Example 87]
11.1 | Cc1nc(C(C)(C)NC(=O)C2CNCCOC2)n2cccc(F)c12 (single isomer, unassigned) [Example 121]
7.7 | Cc1cccc2c(C(C)(C)NC(=O)C3CNCCOC3)cnn12 (racemic) [Example 33]
11.1 | CC(C)(NC(=O)C1CNCCOC1)c1n[nH]c2c(F)cccc12 (racemic) [Example 88]
40.8 | Cc1cccn2c(C3(NC(=O)[C@@H]4CNCCO4)CC3)ncc12 [Example 97]
10.9 | Cc1cccc2c(C(C)(C)NC(=O)[C@@H]3CNCCO3)cnn12 [Example 32]
42 | CC(C)(NC(=O)C1CNCCOC1)c1noc2c(F)cccc12 (single isomer, unassigned) [Example 63]
18 | C[C@H](NC(=O)C1CNCCOC1)c1cccc2ccccc12 (stereo partly drawn) [Example 3]
31 | CC(C)(NC(=O)C1CNCCOC1)c1n[nH]c2c(Cl)cccc12 (single isomer, unassigned) [Example 94]
22.2 | Cc1cccn2c(C(C)(C)NC(=O)C3CNCCOC3)nc(C3CC3)c12 (single isomer, unassigned) [Example 139]
42.9 | Cc1cc2ccccc2c(C(C)(C)NC(=O)C2CCNCCO2)n1 (single isomer, unassigned) [Example 51]
26.3 | CC(C)(NC(=O)[C@@H]1CNCCO1)c1ccnc2ccccc12 [Example 11]
5.3 | Cc1cccn2c(C(C)(C)NC(=O)C3CNCCOC3)nc(C)c12 (single isomer, unassigned) [Example 129]
32.4 | COc1cccn2c(C(C)(C)NC(=O)C3CNCCOC3)ncc12 (racemic) [Example 123]
2.5 | CC(C)(NC(=O)C1CNCCOC1)c1n[nH]c2c(Cl)cccc12 (racemic) [Example 92]
25.4 | Cc1nnc(C(C)(C)NC(=O)[C@@H]2CNCCO2)c2ccccc12 [Example 36]
21.6 | Cn1nc(C(C)(C)NC(=O)[C@@H]2CNCCO2)c2c(F)cccc21 [Example 29]
19 | Cc1cccn2c(C3(NC(=O)C4CNCCOC4)CCC3)ncc12 (single isomer, unassigned) [Example 131]
